Source: patent US10251838B2, “Stereospecific lipids for locoregional therapy with long-term circulating stimuli-sensitive nanocarrier systems” (THERMOSOME GmbH, priority 2013, dated 2019)

What was measured:
[1] = Phase transition temperatures (TM) of phospholipids; type: physicochemical; details: for TM (phase transition temperature): phosphatidylcholine/phosphatidyldiglycerol/phosphatidyltriglycerol/phosphatidyltetraglycerol with the given fatty acid pattern; for main (phase) transition temperature: pure lipid
Experimental: By selecting a phosphatidylcholine having a suitable main transition temperature, the stimuli-sensitive nanocarrier system, in particular the thermosensitive liposome, can be customised. Table 1 gives main transition temperatures (TM) of phosphatidylcholines whose main transition temperatures are in the range of from 0 to 80° C.
The fatty acid chains and their distribution over positions 1 and 2 of the glycerol molecule dominate the physical properties of the phospholipids. The phase transition temperature is independent of whether the phospholipid is the phosphatidylcholine, the phosphatidyldiglycerol, the phosphatidyltriglycerol or the phosphatidyltetraglycerol.

[2] = tissue depth of 2000-3000 μm; cited from earlier work
[3] = Stability and circulation of liposomes in serum / bloodstream (animal experiments); type: in vivo; details: lipid alone in liposomes
Experimental: By using phosphatidyloligoglycerols, it has been possible to prepare thermosensitive liposomes having a prolonged blood circulation time (WO 2002/064116 and WO 2004/026282). […] The majority of the liposomes remain in the blood circulation over a period of 2 hours and are therefore available for heat-controlled release of the active ingredient. Owing to the rapid release-kinetics of these liposomes with heat-induced release of the active ingredient within a few seconds, preferably <15 seconds, more preferably <10 seconds, a previously enclosed active ingredient can be released immediately by targeted heating of the liposomes to temperatures >39° C., preferably 40-42° C.
The main transition temperature for (1,2-dipalmitoyl)-phosphatidylcholine is approximately 41° C. The purely physical requirements for clinical use in liposomes can accordingly be fulfilled by this phosphatidylcholine. However, the serum stability in the bloodstream of humans and animals that is required for clinical applications is lacking. (1,2-Dipalmitoyl)phosphatidylcholine alone is therefore not sufficient to achieve the therapeutic aims. […]
Enclosed active ingredients are only released when the temperature is increased locally to about 42° C. […]

| Structure (SMILES) | TM (phase transition temperature) [1] [°C] | also measured |
| --- | --- | --- |
| CCCCCCCCCCCCCCCCCC(=O)OCC(COP(=O)([O-])OCC[N+](C)(C)C)OC(=O)CCCCCCCCCCCCCCCCC (stereo not drawn) [1,2-distearoyl-, 1,2-distearoylglycero-3-phosphocholine] | 56 | main (phase) transition temperature [1]: 56 °C |
| CCCCCCCCCCCCCCCCCC(=O)OCC(COP(=O)([O-])OCC[N+](C)(C)C)OC(=O)CCCCCCCCCCCCCCC (stereo not drawn) [1-stearoyl-2-palmitoyl-, 1-stearoyl-2-palmitoylglycero-3-phosphocholine] | 48 |  |
| CO[C@@]12[C@H](COC(N)=O)C3=C(C(=O)C(C)=C(N)C3=O)N1C[C@@H]1N[C@@H]12 [mitomycin C] |  | dogs in which no further mitomycin C was detectable [2]: 18/24 |
| CCCCCCCCCCCCCCCC(=O)OCC(COP(=O)([O-])OCC[N+](C)(C)C)OC(=O)CCCCCCCCCCCCC (stereo not drawn) [1-palmitoyl-2-myristoyl-, 1-palmitoyl-2-myristoylglycero-3-phosphocholine] | 27 |  |
| CCCCCCCCCCCCCCCCCCCCCC(=O)OCC(COP(=O)([O-])OCC[N+](C)(C)C)OC(=O)CCCCCCCCCCCCCCCCCCCCC (stereo not drawn) [1,2-dibehenoyl-, 1,2-dibehenoylglycero-3-phosphocholine] | 75 |  |
| CCCCCCCCCCCCCC(=O)OCC(COP(=O)([O-])OCC[N+](C)(C)C)OC(=O)CCCCCCCCCCCCC (stereo not drawn) [1,2-dimyristoyl-, 1,2-dimyristoylglycero-3-phosphocholine] | 23 | main (phase) transition temperature [1]: 23 °C |
| CCCCCCCCCCCCCCCC(=O)OCC(COP(=O)([O-])OCC[N+](C)(C)C)OC(=O)CCCCCCCCCCCCCCC (stereo not drawn) [1,2-dipalmitoyl-, 1,2-dipalmitoylglycero-3-phosphocholine] | 41 | serum stability in the bloodstream of humans and animals [3]: lacking; main (phase) transition temperature ([1]; listed as (1,2-dipalmitoyl)-phosphatidylcholine): approximately 41 °C; main (phase) transition temperature ([1]; listed as dipalmitoyl-phosphatidylcholine): 41 °C |
| CCCCCCCCCCCCCC(=O)OCC(COC(=O)CCCCCCCCCCCCC)OP(=O)([O-])OCC[N+](C)(C)C [1,3-dimyristoyl-, 1,3-dimyristoylglycero-2-phosphocholine] | 19 |  |
| CCCCCCCCCCCCCCCCCC(=O)OCC(COC(=O)CCCCCCCCCCCCCCCCC)OP(=O)([O-])OCC[N+](C)(C)C [1,3-distearoyl-, 1,3-distearoylglycero-2-phosphocholine] | 53 |  |
| CCCCCCCCCCCCCCCC(=O)OCC(COP(=O)([O-])OCC[N+](C)(C)C)OC(=O)CCCCCCCCCCC (stereo not drawn) [1-palmitoyl-2-lauroyl-, 1-palmitoyl-2-lauroylglycero-3-phosphocholine] | 11 |  |
| CCCCCCCCCCCCCCCCCC(=O)OC(COC(=O)CCCCCCCCCCCCC)COP(=O)([O-])OCC[N+](C)(C)C (stereo not drawn) [1-myristoyl-2-stearoyl-, 1-myristoyl-2-stearoylglycero-3-phosphocholine] | 42 |  |
| CCCCCCCCCCCCCCCCCC(=O)OCC(COP(=O)([O-])OCC[N+](C)(C)C)OC(=O)CCCCCCCCCCCCC (stereo not drawn) [1-stearoyl-2-myristoyl-, 1-stearoyl-2-myristoylglycero-3-phosphocholine] | 33 |  |
| CCCCCCCC/C=C\CCCCCCCC(=O)OC(COC(=O)CCCCCCCCCCCCCCC)COP(=O)([O-])OCC[N+](C)(C)C (stereo not drawn) [1-palmitoyl-2-oleoyl-, 1-palmitoyl-2-oleoylglycero-3-phosphocholine] | 5 |  |
| CCCCCCCCCCCCCCCCCCCC(=O)OC[C@H](COP(=O)([O-])OCC[N+](C)(C)C)OC(=O)CCCCCCCCCCCCCCCCCCC [1,2-diarachinoyl-, 1,2-diarachinoylglycero-3-phosphocholine] | 66 |  |
| CCCCCCCCCCCCCCCCCC(=O)OC(COC(=O)CCCCCCCCCCCCCCC)COP(=O)([O-])OCC[N+](C)(C)C (stereo not drawn) [1-palmitoyl-2-stearoyl-, 1-palmitoyl-2-stearoylglycero-3-phosphocholine] | 52 |  |
| CCCCCCCCCCCCCCCCCC(=O)OCC(COC(=O)CCCCCCCCCCCCC)OP(=O)([O-])OCC[N+](C)(C)C (stereo not drawn) [1-stearoyl-3-myristoyl-, 1-stearoyl-3-myristoylglycero-2-phosphocholine] | 46 |  |
| CCCCCCCCCCCCCCCCCCCCCCCC(=O)OCC(COP(=O)([O-])OCC[N+](C)(C)C)OC(=O)CCCCCCCCCCCCCCCCCCCCCCC (stereo not drawn) [1,2-dilignoceroyl-, 1,2-dilignoceroylglycero-3-phosphocholine] | 80 |  |
| CCCCCCCCCCCCCCCC(=O)OCC(COC(=O)CCCCCCCCCCCCCCC)OP(=O)([O-])OCC[N+](C)(C)C [1,3-dipalmitoyl-, 1,3-palmitoylglycero-2-phosphocholine] | 39 |  |
| CCCCCCCCCCCCCCCC(=O)OC(COC(=O)CCCCCCCCCCCCC)COP(=O)([O-])OCC[N+](C)(C)C (stereo not drawn) [1-myristoyl-2-palmitoyl-, 1-myristoyl-2-palmitoylglycero-3-phosphocholine] | 37 |  |
| CCCCCCCC/C=C\CCCCCCCC(=O)O[C@H](COC(=O)CCCCCCCCCCCCCCCCC)COP(=O)([O-])OCC[N+](C)(C)C [1-stearoyl-2-oleoyl-, 1-stearoyl-2-oleoyl-3-phosphocholine] | 7 |  |
| CCCCCCCC/C=C\CCCCCCCC(=O)OC(COC(=O)CCCCCCCCCCCCCCCCCCCCC)COP(=O)([O-])OCC[N+](C)(C)C (stereo not drawn) [1-behenoyl-2-oleoyl-, 1-behenoyl-2-oleoylglycero-3-phosphocholine] | 14 |  |
| CCCCCCCCCCCCCCCCCC(=O)OCC(COP(=O)([O-])OCC[N+](C)(C)C)OC(=O)CCCCCCCCCCC (stereo not drawn) [1-stearoyl-2-lauroyl-, 1-stearoyl-2-lauroylglycero-3-phosphocholine] | 17 |  |
